Results published in US5266594A, “Inhibitors of nitric oxide synthase and use thereof to prevent glutamate neurotoxicity” (priority 1992, dated 1993).
“Also recorded” adds a separate entry of the source. Like-named read-outs stand apart in the source and are kept apart here.

Experiments:
[1] = test system: macrophage NOS (activated macrophage homogenates); test: inhibition of NOS activity in activated macrophage homogenates in vitro; type: biochemical; details: guanidinoalkanoic acid series
Text: (§1) Inhibitors of NOS are compounds which compete for the substrate binding site of NOS or other sites on the enzyme, and include both reversible and irreversible inhibitors. The present invention contemplates the use of any physiologically acceptable inhibitor which inhibits NOS activity. The effectiveness of a compound, and its relative potency as an NOS inhibitor, can be tested and routinely determined by measuring inhibition of NOS activity by monitoring the conversion of arginine to citrulline by NOS in, for example, cerebellar homogenates. A reduction in citrulline formation indicates inhibitory activity of the compound. The percent reduction in citrulline formation, compared to the amount of citrulline formed in the absence of the compound being tested, indicates the potency of the compound as an NOS inhibitor.
(§2) NOS activity was measured by monitoring the conversion of [^3 H]arginine to [^3 H]citrulline as described by Bredt and Snyder (Proc. Natl. Acad. Sci USA (1990) 87682-685). Briefly, enzyme assays contained 25 μl of soluble tissue, 50 μl of […] [^3 H]arginine and 1 mM NADPH, and 25 μl of 3 mM CaCl2. After a 15 minute incubation at room temperature, the assays were terminated with 3 ml of 20 mM Hepes (pH 5.5) with 2 mM EDTA, and were applied to 0.5 ml columns of Dowex AG50WX8 (Na^+ form). [^3 H]citrulline was quantified by liquid scintillation spectroscopy of the 3 ml flow-through.
(§3) Accordingly, the effects of 2, 4 and 24 hours of preincubations of cerebellar supernatants (FIG. 2A) and activated macrophage homogenates (FIG. 2B) with NO2 Arg were examined. The preincubation was conducted at 4° C. since NOS is unstable at higher temperature for long periods of time. Enzymatic incubation was conducted for only 5 minutes to minimize any reaction of the inhibitor with the enzyme in the course of the incubation procedure.
Macrophages were activated as described by Tayeh and Marletta (J. Biol. Chem. (1989) 264:19654-19658) with 3.5 ng/ml LPS from E. coli and 5 units/ml recombinant murine γ-interferon for 24 hours at 37° C. Cells were homogenized in 20 mM Hepes (pH 7.4).

[2] = test system: brain or macrophage enzyme (NOS); test: NOS inhibition and brain/macrophage selectivity of arginine, nitroarginine and guanidinoalkanoic acid analogs; type: biochemical
[3] = biological target: brain NOS (cerebellar NOS) (Rattus norvegicus, UniProt P29476); test: inhibition of NOS activity, conversion of [^3 H]arginine to [^3 H]citrulline, cerebellar homogenates/supernatants in vitro; details: for inhibition of brain NOS, in words: guanidinoalkanoic acid series
Chain of brain NOS (cerebellar NOS) (P29476 whole entry): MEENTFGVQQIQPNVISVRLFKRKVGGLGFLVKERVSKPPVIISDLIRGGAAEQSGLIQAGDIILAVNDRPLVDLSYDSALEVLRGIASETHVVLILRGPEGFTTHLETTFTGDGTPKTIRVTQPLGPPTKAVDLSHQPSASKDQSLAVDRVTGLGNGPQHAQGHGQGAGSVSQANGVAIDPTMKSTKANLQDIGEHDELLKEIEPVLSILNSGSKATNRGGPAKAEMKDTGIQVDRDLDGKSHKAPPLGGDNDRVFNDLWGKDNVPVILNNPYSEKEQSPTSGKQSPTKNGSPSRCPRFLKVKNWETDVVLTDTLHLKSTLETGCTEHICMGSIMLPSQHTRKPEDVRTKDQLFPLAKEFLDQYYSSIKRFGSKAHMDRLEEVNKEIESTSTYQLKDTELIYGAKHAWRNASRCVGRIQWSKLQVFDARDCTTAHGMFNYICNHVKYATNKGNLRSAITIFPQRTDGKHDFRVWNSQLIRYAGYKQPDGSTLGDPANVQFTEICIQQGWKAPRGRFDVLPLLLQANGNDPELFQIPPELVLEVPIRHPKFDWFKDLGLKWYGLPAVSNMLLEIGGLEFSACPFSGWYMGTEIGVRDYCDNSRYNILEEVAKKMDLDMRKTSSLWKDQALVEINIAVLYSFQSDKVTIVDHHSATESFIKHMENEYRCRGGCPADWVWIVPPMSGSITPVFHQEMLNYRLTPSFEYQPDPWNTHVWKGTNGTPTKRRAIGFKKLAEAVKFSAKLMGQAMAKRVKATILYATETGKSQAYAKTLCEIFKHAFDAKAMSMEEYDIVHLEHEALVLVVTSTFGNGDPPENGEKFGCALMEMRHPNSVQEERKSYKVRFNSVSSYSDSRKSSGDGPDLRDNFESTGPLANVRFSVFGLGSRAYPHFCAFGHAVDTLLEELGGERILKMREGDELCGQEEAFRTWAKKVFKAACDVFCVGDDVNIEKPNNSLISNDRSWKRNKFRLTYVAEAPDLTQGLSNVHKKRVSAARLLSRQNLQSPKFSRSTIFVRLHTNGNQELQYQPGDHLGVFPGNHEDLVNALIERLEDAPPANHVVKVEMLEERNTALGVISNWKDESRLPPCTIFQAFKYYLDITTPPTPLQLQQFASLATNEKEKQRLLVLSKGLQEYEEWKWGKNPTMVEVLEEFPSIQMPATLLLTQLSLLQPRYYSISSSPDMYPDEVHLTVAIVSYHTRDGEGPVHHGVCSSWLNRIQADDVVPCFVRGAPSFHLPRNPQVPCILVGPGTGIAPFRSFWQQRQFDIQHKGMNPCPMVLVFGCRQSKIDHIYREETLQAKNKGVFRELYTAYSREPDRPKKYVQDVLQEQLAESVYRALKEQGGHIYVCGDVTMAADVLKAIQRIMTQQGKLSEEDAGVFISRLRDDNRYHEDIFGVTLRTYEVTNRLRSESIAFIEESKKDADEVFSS
Text: as §1
Rat cerebella were homogenized in 10 vols. (w/v) […] Tris (pH 7.4), 2 mM EDTA. Homogenates were centrifuged at 10,000×g for 15 minutes at 4° C. Supernatant preparations were used in the enzyme assays. Cerebellar tissue was dialyzed (Spectra/Por, 10,000 MWCO, EDTA-treated cellulose dialysis tubing) against 20 mM Tris (pH 7.4), 2 mM EDTA (300 ml×2) for 24 hours at 4° C.
Cerebellar homogenates were incubated with arginine derivatives for one hour at 4° C., and dialyzed overnight. Aliquots (25 μg protein) were assayed for NOS activity before and after dialysis.
as §2, §3
Cerebellar supernatants were made as described in Example 1.

cortical cell cultures [4] = test: cells; type: cell-based, rat; details: for reversal of NO2 Arg protection from NMDA cytotoxicity: L-Arg 1 mM with 100 μM NO2 Arg, homoarginine, D-Arg, FIG. 7; for EC50: cortical cultures; for effect on NMDA-induced cell death: 300 μM NMDA (with 10 μM glycine), Hb at 500 μM; for effect on SNP-induced cell death: Hb 500 μM
Procedure: Primary dissociated cell cultures were prepared from fetal rats (13-to 14-day gestation for cortex and caudate-putamen cultures and 19- to 20-day gestation for hippocampal cultures). The tissue of interest was dissected, incubated for 15 minutes in 0.027% trypsin in Brooks-Logan solution (5% phosphate-buffered saline/0.04M sucrose/10 mM Hepes/0.03M glucose, pH 7.4), and then transferred to modified Eagle's medium (MEM) 10% horse serum/10% fetal bovine serum/2 mM glutamine for trituration. Dissociated cells were plated at a density of 3-4×10^5 cells per well in polyornithine-coated 15-mm multiwell plates. After 4 days the cells were treated with 10 μg of 5-fluoro-2'-deoxyuridine to prevent proliferations of noneuronal cells. Cells were maintained in MEM/5% horse serum/2 mM glutamine in 8% CO2 /humidified atmosphere at 37° C. The medium was changed twice weekly. Mature neurons (3-4 weeks) were used.
Cells were exposed to excitatory amino acids according to the method of Koh and Choi (J. Neurosci. (1988) 8:2153-2163). Before exposure, the cells were washed three times with Tris-buffered control salt solution (CSS), containing 120 mM NaCl/5.4 mM KCl/1.8 mM CaCl2 /25 mM Tris hydrochloride, pH 7.4 at room temperature/15 mM glucose. Brief exposures to glutamate, NMDA (plus 10 μM glycine), quisqualate, and sodium nitroprusside (SNP) were performed for 5 minutes in CSS. The exposure solution was then washed away and replaced by MEM with 21 mM glucose; then the cells were placed in an incubator for 20-24 hour. Long exposures to kainate were performed in MEM/21 mM glucose for 20-24 hour in the incubator. After exposure to the excitatory amino acids, the medium was replaced by CSS/0.4% trypan blue, which stains nonviable cells. Two to four photographs (10-20×) were made of each well, and viable versus nonviable cells were counted. The cytotoxicity data represent 6-24 separate wells assayed per data point, with ≈500-1500 cells counted per well. Neuronal cell injury was also assessed by measuring the release of lactate dehydrogenase by damaged or destroyed cells into the extracellular fluid following drug exposure.
Before initiating cytotoxicity experiments with NOS inhibitors, the potency of NMDA applied for 5 minutes in inducing cell death was evaluated by examining exclusion of 0.4% trypan blue by viable cells or measuring lactate dehydrogenase released by damaged or destroyed cells into the extracellular fluid.
To examine the role of NO in other forms of glutamate neurotoxicity, the effects of NO2 Arg cytotoxicity induced by quisqualate, kainate, and NMDA were compared. […] Data are means ±SEM (n=6-24). Cell death was determined by 0.4% trypan blue exclusion by viable cells.

NOS = details: cited from earlier work
cGMP formation = cGMP formation in cortical cell cultures (RIA); type: cell-based, rat; details: for effect on NMDA stimulation of cGMP formation: 300 μM NMDA (plus 10 μM glycine), 1 minute, 100 μM NO2 Arg, 1 mM L-Arg, 100 units of SOD, 500 μM Hb
Procedure: Primary dissociated cell cultures were prepared from fetal rats (13-to 14-day gestation for cortex and caudate-putamen cultures and 19- to 20-day gestation for hippocampal cultures). […] Dissociated cells were plated at a density of 3-4×10^5 cells per well in polyornithine-coated 15-mm multiwell plates. After 4 days the cells were treated with 10 μg of 5-fluoro-2'-deoxyuridine to prevent proliferations of noneuronal cells. Cells were maintained in MEM/5% horse serum/2 mM glutamine in 8% CO2 /humidified atmosphere at 37° C. The medium was changed twice weekly. Mature neurons (3-4 weeks) were used.
For determination of cGMP the cells were washed three times with CSS. […] After ether extraction, cGMP levels were determined by RIA.
Data are means ±SEM (n=6-8).
Data are means ±SEM (n=8-12).

cortical cell cultures [5] = details: Koh et al. (1990); cited from earlier work

Molecule: N=C(N)NCCCCC(=O)O [5-GPA, 5-guanidinopentanoic acid]
- inhibition of macrophage enzyme, in words [1]: potent inhibitors
- selectivity between brain and macrophage enzyme, in words [2]: good selectivity toward the macrophage enzyme
- inhibition of brain NOS, in words [3]: inactive against the brain NOS

Molecule: N=C(N)NCCCCCC(=O)O [6-GHA, 6-guanidinohexanoic acid]
- inhibition of macrophage enzyme, in words [1]: potent inhibitors
- selectivity between brain and macrophage enzyme, in words [2]: good selectivity toward the macrophage enzyme
- inhibition of brain NOS, in words [3]: inactive against the brain NOS

Molecule: N=C(N)NCCC[C@@H](N)C(=O)O [D-Arg, D-arginine]
- reversal of NO2 Arg protection from NMDA cytotoxicity (cortical cell cultures [4]): much weaker than L-Arg; also recorded: comparable to that obtained with 10 μM L-Arg

Molecule: N=C(N)NCCCC[C@H](N)C(=O)O [Homoarginine, homoarginine]
- reversal of NO2 Arg protection from NMDA cytotoxicity (cortical cell cultures [4]): reverses effects of NO2 Arg but is less potent than L-Arg
- affinity for NOS (NOS; Knowles et al. (1989)): less affinity for NOS than L-Arg

Molecule: N=C(N)NCCC[C@H](N)C(=O)O [L-Arg, L-arginine]
- effect on NMDA stimulation of cGMP formation (cGMP formation): competitively reversible by L-Arg
- reversal of NO2 Arg protection from NMDA cytotoxicity (cortical cell cultures [4]): reverses the inhibition by 100 μM NO2 Arg
- reversal of NO2 Arg protection from NMDA cytotoxicity (cortical cell cultures [4]; listed as L-arginine): competitively reversed by L-arginine
- reversal of NO2 Arg protection from NMDA cytotoxicity (cortical cell cultures [4]; listed as L-arginine (L-Arg)): completely reverses the effect of NO2 Arg
- concentration required to obtain maximal NMDA effects (cortical cell cultures [4]; graded L-Arg added to L-Arg-free medium): 100 µM
- protection against quisqualate-induced cell death (cortical cell cultures [4]; quisqualate): reversal by L-Arg

Molecule: CNC(=N)NCCC[C@H](N)C(=O)O [MeArg, L-N^ω -monomethylarginine]
- prevention of neurotoxicity, in words (cortical cell cultures [4]): prevent neurotoxicity in proportion to their relative potencies as NOS inhibitors
- EC50 (cortical cell cultures [4]; Rattus norvegicus, NMDA and related excitatory amino acids, read-out: EC50 for preventing neurotoxicity elicited by N-methyl-D-aspartate): 170 µM
- EC50 (cortical cell cultures [4]; Rattus norvegicus, NMDA, read-out: concentration giving 50% prevention of NMDA-induced cell death): 170 µM
- Ki (NOS; Dwyer et al. (1991), read-out: Ki, inhibition of NOS activity of purified enzyme preparations): 2 µM
- relative potency as inhibitor of NOS activity ([3]; cerebellar supernatant preparations, FIG. 1): NO2 Arg is a more potent inhibitor of NOS activity than MeArg

Molecule: CN[C@H](CC(=O)O)C(=O)O [NMDA, N-methyl-D-aspartate]
- CC50 (cortical cell cultures [4]; Rattus norvegicus, 5 min, read-out: toxic LD50): 280 µM
- cytotoxicity at 300 µM (cortical cell cultures [4]; Rattus norvegicus, 5 min, 300 μM, 5 minutes, read-out: cell death at 300 μM NMDA): 60%
- cytotoxicity at 300 µM (cortical cell cultures [4]; Rattus norvegicus, 300 μM NMDA + 10 μM glycine alone, read-out: Cell death, % ± SEM (NMDA)): 57.8 ± 2.6%
- CC50 (cortical cell cultures [4]; Rattus norvegicus, arginase-treated preparations / L-Arg-free medium, read-out: 50% lethal concentration): 7500 µM
- increase of the 50% lethal concentration of NMDA (cortical cell cultures [4]; arginase-treated preparations / L-Arg-free medium): > 20 fold

Molecule: N[C@@H](CCC(=O)O)C(=O)O [glutamate]
- Cell death, % ± SEM (glutamate) (cortical cell cultures [4]; 500 μM glutamate alone): 48.4 ± 4.4%

Molecule: C=C(C)[C@H]1CN[C@H](C(=O)O)[C@H]1CC(=O)O [kainate]
- neurotoxic action relative to NMDA (cortical cell cultures [5]): act more slowly and less potently than NMDA
- cytotoxicity at 100 µM (cortical cell cultures [4]; Rattus norvegicus, read-out: Cell death, % ± SEM (kainate)): 81.4 ± 7.1%

Molecule: N[C@@H](Cn1oc(=O)[nH]c1=O)C(=O)O [quisqualate]
- neurotoxic action relative to NMDA (cortical cell cultures [5]): act more slowly and less potently than NMDA
- cytotoxicity at 500 µM (cortical cell cultures [4]; Rattus norvegicus, 500 μM quisqualate alone, read-out: Cell death, % ± SEM (quisqualate)): 64.2 ± 3.7%

Molecule: Hb: reduced hemoglobin (Hb), which binds NO
- effect on NMDA stimulation of cGMP formation (cGMP formation): antagonized
- effect on cGMP levels in cortical cells (SNP) (cGMP formation; SNP, 1-minute exposure): blocked by Hb; also recorded: completely reverses SNP-mediated cytotoxicity and cGMP formation
- effect on NMDA-induced cell death (cortical cell cultures [4]): completely prevents NMDA-induced cell death; also recorded: reverses cell death
- effect on NMDA-induced cell death (cortical cell cultures [4]; listed as Hemoglobin): prevents neurotoxic effects of both N-methyl-D-aspartate and sodium nitroprusside
- effect on SNP-induced cell death (cortical cell cultures [4]): completely prevents SNP-induced cell death; also recorded: completely reverses SNP-mediated cytotoxicity
- effect on SNP-induced cell death (cortical cell cultures [4]; listed as Hemoglobin): prevents neurotoxic effects of both N-methyl-D-aspartate and sodium nitroprusside
